Reference: patent US20190175557A1, “COMPOUNDS USEFUL FOR DECREASING INTERFERON LEVEL” (priority 2016, published 2019)
Like-named read-outs stand apart in the source and are kept apart here.

Legend:
HIV-stimulated pDC [1] = assay: Activation markers and cytokine mRNA in HIV-stimulated pDC (RT-qPCR, flow cytometry); format: cell-based, human
HIV-stimulated pDC [2] = assay: IFN-α / type I IFN production by HIV-stimulated purified pDC (ELISA); format: cell-based, human
CXCR4 [3] = molecular target: T1, CXCR4 (Homo sapiens, UniProt P61073); assay: CXCR4 internalization and co-localization in pDC (microscopy); format: cell-based; details: confocal microscopy
T1 sequence (P61073 whole entry): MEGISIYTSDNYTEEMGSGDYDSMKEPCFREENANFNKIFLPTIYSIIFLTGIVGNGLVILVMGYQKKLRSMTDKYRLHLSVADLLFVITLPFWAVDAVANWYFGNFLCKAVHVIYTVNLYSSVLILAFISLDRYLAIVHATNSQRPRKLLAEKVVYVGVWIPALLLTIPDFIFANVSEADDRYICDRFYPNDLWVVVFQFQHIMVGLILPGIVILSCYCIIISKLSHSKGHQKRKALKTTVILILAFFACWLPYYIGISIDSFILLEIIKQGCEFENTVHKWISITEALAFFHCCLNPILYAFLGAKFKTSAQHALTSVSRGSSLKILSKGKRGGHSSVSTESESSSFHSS
Method: Cells were then incubated with anti-CXCR4 antibody (Biolegend, San Diego, Calif.) in saturation buffer PBS-BSA 0.5% for membrane staining or in permeabilizing buffer containing 1% saponin with monoclonal antibody anti-TRAIL (Biolegend, San Diego, Calif., USA). […] Nucleus was stained using DAPI (Molecular Probes, Paisley, UK). Slides were mounted with Fluoromount-G (eBioscience, CA, USA) and scanned with a Nikon Eclipse 90i Upright microscope (Nikon Instruments Europe, Badhoevedorp, The Netherlands) using a 100× Plan Apo VC piezo objective (NA 1.4) and Chroma bloc filters (ET-DAPI, ET-GFP) and were subsequently deconvoluted with a Meinel algorithm and 8 iterations and analyzed using Metamorph® (MDS Analytical Technologies, Winnersh, UK). TRAIL/DAPI/Overlay/Confocal plane: Representative 2D focal plan. Overlay with bright: Bright. […]
In other cases, cells were cultured overnight in media alone then were washed in ice-cold PBS-BSA 0.2% and stained with CXCR4 antibody (R&D Systems) for 1 hour at 4° C. […] Data are expressed as the mean percentage ±SEM mean channel fluorescence intensity (MFI) values for residual surface expression and intracellular staining. […]
7 pictures were taken from each slide for each Z section framing the nucleus. Quantification of the colocalization in the cytoplasm of purified pDC using Mander's Coefficient was obtained after analyze by JACoP pluging in ImageJ. […]

HIV-stimulated pDC [4] = assay: TRAIL relocalization to the membrane of HIV-stimulated pDC (3D microscopy); format: cell-based, human
Method: Cells were then incubated with anti-CXCR4 antibody (Biolegend, San Diego, Calif.) in saturation buffer PBS-BSA 0.5% for membrane staining or in permeabilizing buffer containing 1% saponin with monoclonal antibody anti-TRAIL (Biolegend, San Diego, Calif., USA). […] Nucleus was stained using DAPI (Molecular Probes, Paisley, UK). Slides were mounted with Fluoromount-G (eBioscience, CA, USA) and scanned with a Nikon Eclipse 90i Upright microscope (Nikon Instruments Europe, Badhoevedorp, The Netherlands) using a 100× Plan Apo VC piezo objective (NA 1.4) and Chroma bloc filters (ET-DAPI, ET-GFP) and were subsequently deconvoluted with a Meinel algorithm and 8 iterations and analyzed using Metamorph® (MDS Analytical Technologies, Winnersh, UK). TRAIL/DAPI/Overlay/Confocal plane: Representative 2D focal plan. Overlay with bright: Bright. Reconvolution overlays: 2D projections of the maximum intensity pixels along the Z-axis.
7 pictures were taken from each slide for each Z section framing the nucleus. Quantification of the colocalization in the cytoplasm of purified pDC using Mander's Coefficient was obtained after analyze by JACoP pluging in ImageJ.

pDC = assay: Cytotoxicity of compounds on cultured pDC
[5] = test system: 129S8 mice infected with Influenza A virus strain X31 (H3N2); details: mouse, in vivo
H4R = H4R (Homo sapiens, UniProt Q9H3N8); format: cell-based; details: H4R siRNA, human primary pDC
Chain of H4R (Q9H3N8 whole entry): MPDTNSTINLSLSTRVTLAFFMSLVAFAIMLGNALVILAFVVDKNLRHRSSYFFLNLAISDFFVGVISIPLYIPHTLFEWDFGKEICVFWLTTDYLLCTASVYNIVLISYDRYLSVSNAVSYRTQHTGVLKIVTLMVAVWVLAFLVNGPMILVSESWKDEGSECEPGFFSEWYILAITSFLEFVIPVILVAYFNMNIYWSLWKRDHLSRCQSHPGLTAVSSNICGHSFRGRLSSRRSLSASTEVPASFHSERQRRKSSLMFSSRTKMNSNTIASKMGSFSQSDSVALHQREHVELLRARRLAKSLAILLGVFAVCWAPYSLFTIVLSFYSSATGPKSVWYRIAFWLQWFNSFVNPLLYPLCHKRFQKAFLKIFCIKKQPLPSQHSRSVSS

flu-exposed human PBMC = format: cell-based
CXCR4 [6] = molecular target: T1, CXCR4; details: Jurkat cells, 1 mM, 4° C. for 30 min
[7] = test system: human Flu-activated primary PBMC; assay: cells; format: cell-based
CXCR4 [8] = molecular target: T1, CXCR4
[9] = Solubility of test compounds
[10] = test system: NK cells activated by K562 cells; assay: IFN-γ, TNF-α and CD107a expression by NK cells activated by K562 cells (flow cytometry); format: cell-based; details: treated 1 hour, then activated by K562 cells
[11] = test system: HIV or LPS stimulated monocytes; assay: IFN-γ mRNA in monocytes stimulated with HIV or LPS (RT-qPCR); format: cell-based; details: RT-qPCR normalized to RPL13A
Method: Data shown are representative of two independent experiments.
Monocytes were pre-incubated with clobenpropit (CB), IT1t or chloroquine before being activated by HIV and LPS. IFN-γ levels were measured by RT-qPCR and normalized to RPL13A mRNA expression.

[12] = test system: collagen-induced arthritis in DBA1/J mice; assay: Therapeutic collagen-induced arthritis model in DBA1/J mice; format: in vivo, mouse; details: for inhibition of disease severity: Day 28-42, at termination (Day 42); for average AI (Arthritic Index): maximum AI=16
Method: 80 DBA1/J mice (male, 7-8 weeks) was received and placed in quarantine for 3 days with daily inspections. Ear tag mice for individual identification.
Individual mouse weights were recorded. Hind paw thickness were recorded by digital caliper. 80 mice subcutaneous were injected with collagen/CFA emulsion (0.05 ml/mouse; 100 μg/mouse collagens in CFA) using a 1 ml syringe fitted with a 25G needle. Mice returned to cages.
80 mice were boosted with collagen/ICFA emulsion. Then their individual weights were recorded.
Mice were scored for signs of arthritis:
7) Calculate Arthritic Index (AI) by addition of individual paw scores and record.
Mice with an AI score within a range of 2-6 were selected for assignment to groups for therapeutic dosing as in Table 4.
Begin intraperitoneal (IP) dosing once daily (QD) according to Table 4.
The compounds clobenpropit (CB) and IT1t were tested. CB and IT1t were stored at 4° C. […] These compounds were doses 7 days per week (Saturday and Sunday included) daily for 14 days.
Mice were weighed, scored for signs or arthritis, and hind paw thickness is measured by digital caliper three-times weekly (Monday, Wednesday and Friday). Any adverse reactions to treatment were recorded.
Termination: AI score were recorded for each limb. The paw thickness of the hind limbs is measured with digital caliper. Mice were anesthetized and exsanguinated into pre-chilled EDTA-tubes.
2) Plasma was assayed by ELISA for IL-1β, IL-6, TRAIL. Then, all limbs were collected.

[13] = test system: pristane-induced SLE in Balb/c mice; assay: Pristane-induced systemic lupus erythematosus (SLE) model in Balb/c mice; format: in vivo, mouse; details: 3, 10, 30 mg/kg IP QD
Method: Receive and quarantine (SOP 560) 70 female Balb/C (20-25 g) mice and house in filter-topped cages supplied with autoclaved bedding.
The animals are weighed, ear tagged for individual identification and randomly assigned to 8 treatment groups of 8 animals each and two groups of 3 animals (for pre-tolerance at 30 mg/kg of survival).
The test items compounds clobenpropit (CB) and IT1t are stored at 4° C.
Mouse weights are recorded twice a week, and daily observations for clinical signs.
Collected sera are stored at −80° C. for measurements of autoantibody on weeks 4, 8 and 10. (Predose will kept at −80° C. for potential use). Anti-dsDNA level is a standard screening readout for identifying efficacy of test compounds in a SLE model.
Measurements: weeks 4, 8, 10: (1) autoantibody (anti-dsDNA), collagen and cytokines TNFα, IL-6 and TRAIL by ELISA and (2) ANA antibody by IFA.

[14] = 3 mg/kg IP once daily, at termination (Day 42)
[15] = 10 mg/kg IP once daily, at termination
[16] = 30 mg/kg IP once daily, at termination

Molecule: c1cc(CN2CCCNCCNCCCNCC2)ccc1CN1CCCNCCNCCCNCC1 [AMD3100]
- type I IFN and TRAIL expression by HIV-activated pDC, compound alone (HIV-stimulated pDC [1]): did not block
- effect on biological activities of histamine and CB on HIV activated-pDC (HIV-stimulated pDC [1]; pre-incubation 1 hour (20 μM) before histamine or CB): drastically abolished

Molecule: NCCc1cc(=O)oc2c3c4c(cc12)CCCN4CCC3 [FFN-511, FFN511]
- IFN type I production by HIV-stimulated pDC (HIV-stimulated pDC [2]; 50 μM): strongly reduced
- iNOS or IL-15 gene expression (HIV-stimulated pDC [1]; HIV-1-stimulated pDC, RT-qPCR): neither CB nor FFN-511 affected
- transcription of virus-induced genes (TRAIL, IFNs, IL6, IL8, IL10, CXCL10, ISG56) induced in pDC by HIV-1 (HIV-stimulated pDC [1]; RT-qPCR profiling, normalized to RPL13A): dramatically inhibited
- co-localization with CXCR4 in pDC (CXCR4 [3]): strong degree of co-localization
- TRAIL localization to the cell membrane in HIV-stimulated pDC (HIV-stimulated pDC [4]): significantly inhibited
- cytotoxic effect on pDC (pDC; 50 μM): without any obvious cytotoxic effect

Molecule: NCCc1c[nH]cn1 [Histamine]
- IFN-α, IFN-β and IFN-λ2/3 protein production in bronchioalveolar lavage (BAL) fluid [5]: a trend towards IFN reduction that was not statistically significant
- effect of H4R knock down on inhibitory activity on IFN-α, IFN-β and TRAIL productions by HIV-stimulated pDC (H4R): did not block
- IFN-α/β and IFN-λ2/3 mRNA levels (flu-exposed human PBMC): significantly reduced
- inhibitory effect on pDC activation / IFN-α production by HIV-1 (HIV-stimulated pDC [2]; purified pDC, 10 μM): active
- Therapeutic index (Ratio TC50/EC50) (human primary PBMC): <1500
- TC50 (human primary PBMC; human): <2000 µM
- cytotoxicity on purified pDC (pDC; 10 μM): without obvious toxicity
- binding of the CXCR4 antibody 12G5 on T cells (CXCR4 [6]): inhibited
- EC50 [7]: 1.4 ± 1 µM
- effect of CXCR4 gene silencing on the inhibitory effect on type I IFN and TRAIL (CXCR4 [8]; pDC stimulated by CXCR4-tropic HIV-1): suppressed

Molecule: CC1(C)CN2C(CS/C(=N\C3CCCCC3)NC3CCCCC3)=CSC2=N1 [IT1t]
- solubility ([9]; PBS, aqueous buffer): > 50 mg/mL
- solubility ([9]; water): > 50 mg/mL
- CC50 (in vitro; human): 238 ± 21 µM
- IFN-γ, TNF-α and CD107a expression by NK cells [10]: decrease
- effect on cytokine production of activated pDC compared with CB (HIV-stimulated pDC [1]): stronger effect
- IFN-α, IFN-β and TRAIL expression by HIV-stimulated pDC (HIV-stimulated pDC [1]; 1 hour pre-culture, HIV X4): inhibited
- Therapeutic index (Ratio TC50/EC50) (human primary PBMC): 33.5
- IFN-γ expression by HIV or LPS stimulated monocytes [11]: inhibit
- reduction in terminal plasma concentration of IL-1β ([12]; 3 mg/kg IP once daily): 49%
- reduction in terminal plasma concentration of TRAIL ([12]; 3 mg/kg IP once daily): 62%
- inhibition of disease severity ([12]; 3 mg/kg IP once daily): no amelioratory effect
- average AI (Arthritic Index) [12, 14]: 13.1
- reduction in terminal plasma concentration of IL-1β ([12]; 10 mg/kg IP once daily): 53%
- reduction in terminal plasma concentration of IL-6 ([12]; 10 mg/kg IP once daily): 30%
- reduction in terminal plasma concentration of TRAIL ([12]; 10 mg/kg IP once daily): 46%
- reduction in disease severity [12, 15]: 40%
- average AI (Arthritic Index) [12, 15]: 7.9
- reduction in terminal plasma concentration of IL-1β ([12]; 30 mg/kg IP once daily): 69%
- reduction in terminal plasma concentration of IL-6 ([12]; 30 mg/kg IP once daily): 66%
- reduction in terminal plasma concentration of TRAIL ([12]; 30 mg/kg IP once daily): 51%
- reduction in disease severity [12, 16]: 63%
- average AI (Arthritic Index) [12, 16]: 4.9
- disease progression over the dose range ([12]; 3, 10 and 30 mg/kg daily intraperitoneal injection): dose-dependent inhibition
- toxicity at the efficient concentrations (pDC): not toxic
- toxicity at higher concentrations (pDC; diluted in DMSO): some toxicity
- EC50 ([7]; read-out: EC50): 7.1 ± 1 µM
- type I IFN reduction in CXCR4 siRNA-treated cells (CXCR4 [8]; pDC stimulated with HIV X4 or HIV R5, active with control siRNA): lost its biological activity
- symptoms of pristane-Induced Systemic Lupus Erythematosus [13]: reduce symptoms
- ds-DNA level ([13]; compared to group 1 (vehicle)): inhibition

Molecule: NCCc1c[nH]c2ccc(O)cc12 [Serotonin, serotonin]
- CC50 (in vitro): 1500 ± 54 µM

Molecule: CCN(CC)CCCC(C)Nc1ccnc2cc(Cl)ccc12 (stereo not drawn) [chloroquine]
- IFN-γ expression by HIV or LPS stimulated monocytes [11]: inhibit

Molecule: C[C@]12C=CC(=O)C=C1CC[C@@H]1[C@@H]2[C@@H](O)C[C@@]2(C)[C@H]1CC[C@]2(O)C(=O)CO [prednisolone]
- reduction in terminal plasma concentration of IL-1β ([12]; 3 mg/kg IP once daily): 62%
- reduction in terminal plasma concentration of IL-6 ([12]; 3 mg/kg IP once daily): 79%
- reduction in terminal plasma concentration of TRAIL ([12]; 3 mg/kg IP once daily): 72%
- inhibition of disease severity ([12]; 3 mg/kg IP once daily): 82%
- average AI (Arthritic Index) [12, 14]: 2.4

Molecule: NCCCNCCCCNCCCN [spermin, spermine]
- IFN-γ, TNF-α and CD107a expression by NK cells [10]: decrease

Molecule: CXCL12: CXCR4 natural ligand
- IFN-α/β mRNA expressions by HIV stimulated pDC (HIV-stimulated pDC [1]; 62.5 nM, pre-incubation 15 min, 30 min, 60 min): did not reduce
- type I IFN mRNA expression by HIV stimulated pDC (HIV-stimulated pDC [1]; 10 μM): did not inhibit
